From the supplement of paper PMC10307832

Assays:
Test in all cases: relative viability (nuclei count vs DMSO), 5 days (fraction); higher = more cells survive
NCI-H661 = system: NCI-H661
In short: (§1)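 Values are medians from duplicate plates. Each reflects relative viability, defined as the nuclei count of treated wells over that of vehicle wells. Lung cancer cell lines in 1536-well plates were pin-tool dosed one day after seeding with one drug alone or with a fixed anchor-drug dose plus five library-drug doses (not always all listed) in √10 steps, then fixed, stained and imaged at 4× after 5 days.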

NCI-H1651 = system: NCI-H1651
In short: as §1

SK-MES-1 = system: SK-MES-1
In short: as §1

LXF-289 = system: LXF-289
In short: as §1

CAL-12T = system: CAL-12T
In short: as §1

SK-LU-1 = system: SK-LU-1
In short: as §1

LC-2-ad = system: LC-2-ad
In short: as §1

H3255 = system: H3255
In short: as §1

PC-3 [JPC-3] = system: PC-3 [JPC-3]
In short: as §1

NCI-H1915 = system: NCI-H1915
In short: as §1

NCI-H2085 = system: NCI-H2085
In short: as §1

EKVX = system: EKVX
In short: as §1

EMC-BAC-2 = system: EMC-BAC-2
In short: as §1

NCI-H2228 = system: NCI-H2228
In short: as §1

NCI-H1395 = system: NCI-H1395
In short: as §1

NCI-H2347 = system: NCI-H2347
In short: as §1

COR-L 105 = system: COR-L 105
In short: as §1

NCI-H1793 = system: NCI-H1793
In short: as §1

LK-2 = system: LK-2
In short: as §1

NCI-H1755 = system: NCI-H1755
In short: as §1

NCI-H1944 = system: NCI-H1944
In short: as §1

NCI-H2087 = system: NCI-H2087
In short: as §1

NCI-H1437 = system: NCI-H1437
In short: as §1

CCCCCCCCCCCC1=C(O)C(=O)C=C(O)C1=O [Embelin] + C[C@]1(O)C[C@@H](c2nc(-c3ccc4ccc(-c5ccccc5)nc4c3)c3c(N)nccn32)C1 [Linsitinib] (partner 1 µM)
relative viability (NCI-H661; first compound 0.08 µM): 0.635 | relative viability (NCI-H661; first compound 0.8 µM): 0.717 | relative viability (NCI-H661; first compound 2.53 µM): 0.546 | relative viability (NCI-H661; first compound 8 µM): 0.623 | relative viability (NCI-H1651; first compound 0.08 µM): 0.955 | relative viability (NCI-H1651; first compound 0.8 µM): 1.1 | relative viability (NCI-H1651; first compound 2.53 µM): 1.04 | relative viability (NCI-H1651; first compound 8 µM): 0.878 | relative viability (SK-MES-1; first compound 0.08 µM): 1.17 | relative viability (SK-MES-1; first compound 0.8 µM): 1.11 | relative viability (SK-MES-1; first compound 2.53 µM): 1.17 | relative viability (SK-MES-1; first compound 8 µM): 1.04 | relative viability (LXF-289; first compound 0.08 µM): 0.991 | relative viability (LXF-289; first compound 0.8 µM): 0.957 | relative viability (LXF-289; first compound 2.53 µM): 1 | relative viability (LXF-289; first compound 8 µM): 1.01 | relative viability (CAL-12T; first compound 0.08 µM): 0.783 | relative viability (CAL-12T; first compound 0.8 µM): 0.915 | relative viability (CAL-12T; first compound 2.53 µM): 0.749 | relative viability (CAL-12T; first compound 8 µM): 0.831 | relative viability (SK-LU-1; first compound 0.08 µM): 1.17 | relative viability (SK-LU-1; first compound 0.8 µM): 1.28 | relative viability (SK-LU-1; first compound 2.53 µM): 1.1 | relative viability (SK-LU-1; first compound 8 µM): 0.993 | relative viability (LC-2-ad; first compound 0.08 µM): 0.822 | relative viability (LC-2-ad; first compound 0.8 µM): 0.891 | relative viability (LC-2-ad; first compound 2.53 µM): 0.526 | relative viability (LC-2-ad; first compound 8 µM): 0.913 | relative viability (H3255; first compound 0.08 µM): 1 | relative viability (H3255; first compound 0.8 µM): 1.23 | relative viability (H3255; first compound 2.53 µM): 0.931 | relative viability (H3255; first compound 8 µM): 0.922 | relative viability (PC-3 [JPC-3]; first compound 0.08 µM): 0.972 | relative viability (PC-3 [JPC-3]; first compound 0.8 µM): 0.967 | relative viability (PC-3 [JPC-3]; first compound 2.53 µM): 0.947 | relative viability (PC-3 [JPC-3]; first compound 8 µM): 0.983 | relative viability (NCI-H1915; first compound 0.08 µM): 1.17 | relative viability (NCI-H1915; first compound 0.8 µM): 1.11 | relative viability (NCI-H1915; first compound 2.53 µM): 1.13 | relative viability (NCI-H1915; first compound 8 µM): 1.12 | relative viability (NCI-H2085; first compound 0.08 µM): 0.909 | relative viability (NCI-H2085; first compound 0.8 µM): 1.02 | relative viability (NCI-H2085; first compound 2.53 µM): 0.972 | relative viability (NCI-H2085; first compound 8 µM): 1.04 | relative viability (EKVX; first compound 0.08 µM): 0.967 | relative viability (EKVX; first compound 0.8 µM): 1.09 | relative viability (EKVX; first compound 2.53 µM): 1.2 | relative viability (EKVX; first compound 8 µM): 1.06 | relative viability (EMC-BAC-2; first compound 0.08 µM): 0.845 | relative viability (EMC-BAC-2; first compound 0.8 µM): 0.862 | relative viability (EMC-BAC-2; first compound 2.53 µM): 0.844 | relative viability (EMC-BAC-2; first compound 8 µM): 0.842 | relative viability (NCI-H2228; first compound 0.08 µM): 0.636 | relative viability (NCI-H2228; first compound 0.8 µM): 0.781 | relative viability (NCI-H2228; first compound 2.53 µM): 1.09 | relative viability (NCI-H2228; first compound 8 µM): 0.59 | relative viability (NCI-H1395; first compound 0.08 µM): 1.22 | relative viability (NCI-H1395; first compound 0.8 µM): 1.38 | relative viability (NCI-H1395; first compound 2.53 µM): 0.99 | relative viability (NCI-H1395; first compound 8 µM): 0.873 | relative viability (NCI-H2347; first compound 0.08 µM): 0.968 | relative viability (NCI-H2347; first compound 0.8 µM): 1.03 | relative viability (NCI-H2347; first compound 2.53 µM): 1.09 | relative viability (NCI-H2347; first compound 8 µM): 0.958 | relative viability (COR-L 105; first compound 0.08 µM): 1.02 | relative viability (COR-L 105; first compound 0.8 µM): 1.33 | relative viability (COR-L 105; first compound 2.53 µM): 0.88 | relative viability (COR-L 105; first compound 8 µM): 0.874 | relative viability (NCI-H1793; first compound 0.08 µM): 0.736 | relative viability (NCI-H1793; first compound 0.8 µM): 1.15 | relative viability (NCI-H1793; first compound 2.53 µM): 1.5 | relative viability (NCI-H1793; first compound 8 µM): 0.853 | relative viability (LK-2; first compound 0.08 µM): 0.685 | relative viability (LK-2; first compound 0.8 µM): 0.525 | relative viability (LK-2; first compound 2.53 µM): 0.805 | relative viability (LK-2; first compound 8 µM): 0.547 | relative viability (NCI-H1755; first compound 0.08 µM): 1.03 | relative viability (NCI-H1755; first compound 0.8 µM): 1.06 | relative viability (NCI-H1755; first compound 2.53 µM): 1.07 | relative viability (NCI-H1755; first compound 8 µM): 0.98 | relative viability (NCI-H1944; first compound 0.08 µM): 1.15 | relative viability (NCI-H1944; first compound 0.8 µM): 1.39 | relative viability (NCI-H1944; first compound 2.53 µM): 1.17 | relative viability (NCI-H1944; first compound 8 µM): 1.12 | relative viability (NCI-H2087; first compound 0.08 µM): 0.998 | relative viability (NCI-H2087; first compound 0.8 µM): 0.97 | relative viability (NCI-H2087; first compound 2.53 µM): 1.01 | relative viability (NCI-H2087; first compound 8 µM): 0.916 | relative viability (NCI-H1437; first compound 0.08 µM): 1.01 | relative viability (NCI-H1437; first compound 0.8 µM): 1.1 | relative viability (NCI-H1437; first compound 2.53 µM): 1.24 | relative viability (NCI-H1437; first compound 8 µM): 0.76
